Measurements as given in PMC8162404, “Proteomimetic surface fragments distinguish targets by function” (Chemical Science, 2020).

Columns and labels:
[1] = target: T1, S100B (Homo sapiens, UniProt P04271); assay: Competition pull-down with native ligand RSK1 (689–735); assay type: binding; conditions: H14 library; competitor peptide 200 µM; read-out: Surface mapping KD (apparent), competition
T1 construct: made in house; host or cells: Escherichia coli BL21(DE3)
T1 sequence (P04271 1-92): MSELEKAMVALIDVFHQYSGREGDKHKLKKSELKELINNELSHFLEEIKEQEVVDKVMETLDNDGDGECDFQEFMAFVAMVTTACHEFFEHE

[2] = target: T2, Gal-1 (Homo sapiens, UniProt P09382); assay: Pull-down assay with immobilized protein and LSM libraries; assay type: binding; conditions: H14 library; 1:1 binding assumed; read-out: Surface mapping KD (apparent)
T2 construct: made in house; host or cells: E. coli BL21(DE3)
How it was run: (§1)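 Buffers were HEPES pH 7.4 with 150 mM NaCl, plus 1 mM TCEP and 1 mM CaCl2 (50 mM HEPES) for S100A4 and S100B, 1 mM TCEP for Gal-1, and no additive for RecQ-WH. Immobilized protein at 64 µM was equilibrated 30 min with the LSM sublibrary, and unbound probes were measured by LC-MS.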

[3] = target: T1, S100B; assay: as above; assay type: binding; conditions: H14 library; 1:1 binding assumed; read-out: Surface mapping KD (apparent)
How it was run: as §1

[4] = target: T3, S100A4 (Homo sapiens, UniProt P26447); assay: as above; assay type: binding; conditions: H14 library; 1:1 binding assumed; read-out: Surface mapping KD (apparent)
T3 construct: made in house; host or cells: Escherichia coli BL21(DE3)
How it was run: as §1

[5] = target: T4, CaM (Bos taurus, UniProt P62157); assay: as above; assay type: binding, bovine; conditions: H14 library; 1:2 stoichiometry assumed; read-out: Surface mapping KD (apparent)
T4 construct: made in house; host or cells: E. coli BL21 (DE3)
How it was run: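 CaM buffer was 20 mM HEPES pH 7.4, 150 mM NaCl, 5 mM CaCl2. LSM sublibrary members ([…]) incubated 30 min, RT, with equimolar His-tagged protein on Co-NTA resin. HPLC-MS measured unbound probes; bound fraction relative to resin-only background gave dissociation constants.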

[6] = target: T2, Gal-1; assay: Competition pull-down with lactose; assay type: binding; conditions: H14 library; lactose 10 mM; read-out: Surface mapping KD (apparent), competition
How it was run: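 His6-tagged proteins immobilized on Co-NTA resin at 64 µM final with 64-member LSM foldamer sublibraries (1 M each, as printed) in pH 7.4 HEPES/NaCl buffers (Ca2+/TCEP per target), 30 min RT; competitor peptides 200 µM final, lactose 10 mM for Gal-1. Bound fractions from LC-MS loss vs protein-free resin; KD assuming 1:1 binding.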

[7] = target: T4, CaM; assay: Competition pull-down with native ligand TRPV1-Ct15; assay type: binding, bovine; conditions: H14 library; competitor peptide 200 µM; read-out: Surface mapping KD (apparent), competition

T3 sequence (P26447 whole entry): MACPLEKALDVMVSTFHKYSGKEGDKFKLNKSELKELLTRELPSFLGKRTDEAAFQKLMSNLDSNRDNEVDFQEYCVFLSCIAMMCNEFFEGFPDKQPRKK
T2 sequence (P09382 whole entry): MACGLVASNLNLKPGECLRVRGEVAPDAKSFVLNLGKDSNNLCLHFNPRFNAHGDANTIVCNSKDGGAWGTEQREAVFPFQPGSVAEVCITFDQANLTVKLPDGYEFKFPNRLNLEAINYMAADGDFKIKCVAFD

SMILES | Kd [1] [µM] | Kd [2] [µM] | Kd [3] [µM] | Kd [4] [µM] | Kd [5] [µM] | Kd [6] [µM] | Kd [7] [µM]
CC[C@H](C)[C@@H](CC(=O)N[C@H]1CCCC[C@@H]1C(N)=O)NC(=O)[C@H]1CCCC[C@@H]1NC(=O)[C@H]1CCCC[C@@H]1NC(=O)C[C@H](C)NC(=O)[C@H]1CCCC[C@@H]1N [H14 AI] | 238 | 248 | 108 | 7 | 13 |  | 
C[C@@H](CC(=O)N[C@H]1CCCC[C@@H]1C(=O)N[C@H]1CCCC[C@@H]1C(=O)N[C@H](CC(=O)N[C@H]1CCCC[C@@H]1C(N)=O)Cc1ccc(O)cc1)NC(=O)[C@H]1CCCC[C@@H]1N [H14 AY] | 304 | 353 | 192 | 221 | 119 |  | 
CSCC[C@@H](CC(=O)N[C@H]1CCCC[C@@H]1C(N)=O)NC(=O)[C@H]1CCCC[C@@H]1NC(=O)[C@H]1CCCC[C@@H]1NC(=O)C[C@H](CCC(=O)O)NC(=O)[C@H]1CCCC[C@@H]1N [H14 EM] | 141 |  |  |  |  |  | 
NC(=O)CC[C@@H](CC(=O)N[C@H]1CCCC[C@@H]1C(N)=O)NC(=O)[C@H]1CCCC[C@@H]1NC(=O)[C@H]1CCCC[C@@H]1NC(=O)C[C@H](Cc1ccccc1)NC(=O)[C@H]1CCCC[C@@H]1N [H14 FQ] | 494 |  | 433 | 377 | 49 |  | 
CC[C@H](C)[C@@H](CC(=O)N[C@H]1CCCC[C@@H]1C(=O)N[C@H]1CCCC[C@@H]1C(=O)N[C@@H](C)CC(=O)N[C@H]1CCCC[C@@H]1C(N)=O)NC(=O)[C@H]1CCCC[C@@H]1N [H14 IA] | 296 | 247 | 108 | 7 | 16 |  | 
CC[C@H](C)[C@@H](CC(=O)N[C@H]1CCCC[C@@H]1C(=O)N[C@H]1CCCC[C@@H]1C(=O)N[C@@H](CCCCN)CC(=O)N[C@H]1CCCC[C@@H]1C(N)=O)NC(=O)[C@H]1CCCC[C@@H]1N [H14 IK] | 216 |  | 84 | 307 | 31 |  | 
CC[C@H](C)[C@@H](CC(=O)N[C@H]1CCCC[C@@H]1C(=O)N[C@H]1CCCC[C@@H]1C(=O)N[C@@H](CC(N)=O)CC(=O)N[C@H]1CCCC[C@@H]1C(N)=O)NC(=O)[C@H]1CCCC[C@@H]1N [H14 IN] | 325 |  |  | 321 | 281 |  | 
CC[C@H](C)[C@@H](CC(=O)N[C@H]1CCCC[C@@H]1C(=O)N[C@H]1CCCC[C@@H]1C(=O)N[C@@H](CCC(N)=O)CC(=O)N[C@H]1CCCC[C@@H]1C(N)=O)NC(=O)[C@H]1CCCC[C@@H]1N [H14 IQ] | 387 |  | 497 | 319 | 321 |  | 
CC[C@H](C)[C@@H](CC(=O)N[C@H]1CCCC[C@@H]1C(=O)N[C@H]1CCCC[C@@H]1C(=O)N[C@@H](CCCNC(=N)N)CC(=O)N[C@H]1CCCC[C@@H]1C(N)=O)NC(=O)[C@H]1CCCC[C@@H]1N [H14 IR] | 174 |  | 37 | 103 | 20 |  | 
CC[C@H](C)[C@@H](CC(=O)N[C@H]1CCCC[C@@H]1C(=O)N[C@H]1CCCC[C@@H]1C(=O)N[C@@H](CO)CC(=O)N[C@H]1CCCC[C@@H]1C(N)=O)NC(=O)[C@H]1CCCC[C@@H]1N [H14 IS] | 456 | 266 | 382 | 79 | 142 |  | 
CC(C)C[C@@H](CC(=O)N[C@H]1CCCC[C@@H]1C(=O)N[C@H]1CCCC[C@@H]1C(=O)N[C@@H](CCCCN)CC(=O)N[C@H]1CCCC[C@@H]1C(N)=O)NC(=O)[C@H]1CCCC[C@@H]1N [H14 LK] | 316 |  | 82 | 312 | 27 |  | 
CC(C)C[C@@H](CC(=O)N[C@H]1CCCC[C@@H]1C(=O)N[C@H]1CCCC[C@@H]1C(=O)N[C@@H](CC(N)=O)CC(=O)N[C@H]1CCCC[C@@H]1C(N)=O)NC(=O)[C@H]1CCCC[C@@H]1N [H14 LN] | 254 | 314 | 409 | 433 | 294 |  | 
CC(C)C[C@@H](CC(=O)N[C@H]1CCCC[C@@H]1C(=O)N[C@H]1CCCC[C@@H]1C(=O)N[C@@H](CCCNC(=N)N)CC(=O)N[C@H]1CCCC[C@@H]1C(N)=O)NC(=O)[C@H]1CCCC[C@@H]1N [H14 LR] | 167 | 116 | 82 | 138 | 14 |  | 
CC(C)C[C@@H](CC(=O)N[C@H]1CCCC[C@@H]1C(=O)N[C@H]1CCCC[C@@H]1C(=O)N[C@@H](CO)CC(=O)N[C@H]1CCCC[C@@H]1C(N)=O)NC(=O)[C@H]1CCCC[C@@H]1N [H14 LS] | 371 | 498 | 379 | 195 | 99 |  | 
CC(C)C[C@@H](CC(=O)N[C@H]1CCCC[C@@H]1C(=O)N[C@H]1CCCC[C@@H]1C(=O)N[C@H](CC(=O)N[C@H]1CCCC[C@@H]1C(N)=O)[C@@H](C)O)NC(=O)[C@H]1CCCC[C@@H]1N [H14 LT] | 294 | 336 | 162 | 66 | 39 |  | 
CSCC[C@@H](CC(=O)N[C@H]1CCCC[C@@H]1C(=O)N[C@H]1CCCC[C@@H]1C(=O)N[C@@H](C)CC(=O)N[C@H]1CCCC[C@@H]1C(N)=O)NC(=O)[C@H]1CCCC[C@@H]1N [H14 MA] | 382 | 385 | 380 | 72 | 16 |  | 
CSCC[C@@H](CC(=O)N[C@H]1CCCC[C@@H]1C(=O)N[C@H]1CCCC[C@@H]1C(=O)N[C@H](CC(=O)N[C@H]1CCCC[C@@H]1C(N)=O)[C@@H](C)O)NC(=O)[C@H]1CCCC[C@@H]1N [H14 MT] | 337 | 424 | 476 | 148 | 63 |  | 
N=C(N)NCCC[C@@H](CC(=O)N[C@H]1CCCC[C@@H]1C(N)=O)NC(=O)[C@H]1CCCC[C@@H]1NC(=O)[C@H]1CCCC[C@@H]1NC(=O)C[C@H](CO)NC(=O)[C@H]1CCCC[C@@H]1N [H14 SR] |  | 156 | 76 | 188 | 75 | 349 | 174
C[C@@H](O)[C@@H](CC(=O)N[C@H]1CCCC[C@@H]1C(=O)N[C@H]1CCCC[C@@H]1C(=O)N[C@@H](CCCNC(=N)N)CC(=O)N[C@H]1CCCC[C@@H]1C(N)=O)NC(=O)[C@H]1CCCC[C@@H]1N [H14 TR] |  | 372 | 94 | 407 | 75 | 432 | 338
CC(C)[C@@H](CC(=O)N[C@H]1CCCC[C@@H]1C(=O)N[C@H]1CCCC[C@@H]1C(=O)N[C@@H](CCC(=O)O)CC(=O)N[C@H]1CCCC[C@@H]1C(N)=O)NC(=O)[C@H]1CCCC[C@@H]1N [H14 VE] | 369 | 313 |  |  |  |  | 
CC(C)[C@@H](CC(=O)N[C@H]1CCCC[C@@H]1C(=O)N[C@H]1CCCC[C@@H]1C(=O)N[C@@H](CCCCN)CC(=O)N[C@H]1CCCC[C@@H]1C(N)=O)NC(=O)[C@H]1CCCC[C@@H]1N [H14 VK] | 390 | 296 | 138 |  | 67 |  | 
CSCC[C@@H](CC(=O)N[C@H]1CCCC[C@@H]1C(N)=O)NC(=O)[C@H]1CCCC[C@@H]1NC(=O)[C@H]1CCCC[C@@H]1NC(=O)C[C@@H](NC(=O)[C@H]1CCCC[C@@H]1N)C(C)C [H14 VM] | 229 |  | 93 | 5 | 26 |  | 
CC(C)[C@@H](CC(=O)N[C@H]1CCCC[C@@H]1C(=O)N[C@H]1CCCC[C@@H]1C(=O)N[C@@H](CC(N)=O)CC(=O)N[C@H]1CCCC[C@@H]1C(N)=O)NC(=O)[C@H]1CCCC[C@@H]1N [H14 VN] | 271 | 302 |  |  |  |  | 
CC(C)[C@@H](CC(=O)N[C@H]1CCCC[C@@H]1C(=O)N[C@H]1CCCC[C@@H]1C(=O)N[C@@H](CCC(N)=O)CC(=O)N[C@H]1CCCC[C@@H]1C(N)=O)NC(=O)[C@H]1CCCC[C@@H]1N [H14 VQ] | 339 | 161 |  |  |  |  | 
CC(C)[C@@H](CC(=O)N[C@H]1CCCC[C@@H]1C(=O)N[C@H]1CCCC[C@@H]1C(=O)N[C@@H](CO)CC(=O)N[C@H]1CCCC[C@@H]1C(N)=O)NC(=O)[C@H]1CCCC[C@@H]1N [H14 VS] | 460 | 190 |  | 263 | 264 |  | 
NC(=O)[C@H]1CCCC[C@@H]1NC(=O)C[C@H](CO)NC(=O)[C@H]1CCCC[C@@H]1NC(=O)[C@H]1CCCC[C@@H]1NC(=O)C[C@H](Cc1ccc(O)cc1)NC(=O)[C@H]1CCCC[C@@H]1N [H14 YS] | 399 | 336 |  | 346 | 67 |  | 
